Data from patent publication US5679675A, “8-amino-10-(azabicycloalkyl)-pyrido[1,2,3-d,e][1,3,4]benzoxadiazine derivatives” (Bayer Aktiengesellschaft, priority 1994, dated 1997).
Converted amounts (≈) assume the structure as drawn. Where two headings read alike, the source gives them in different places.

Legend:
Assay in all cases: MIC, serial dilution method on Iso-Sensitest agar
Format in all cases: cell-based
Staphylococcus aureus = conditions: about 20 hours
Method: (§1) The minimum inhibitory concentrations (MIC) of the compounds according to the invention were determined by serial dilution methods on Iso-Sensitest agar (Oxoid). For each test substance, a series of agar plates was prepared which contained decreasing concentrations of the active compound at, in each case, double dilution. The agar plates were inoculated with a multipoint inoculator (Denley). For inoculation, overnight cultures of the pathogens were reed which had previously been diluted such that each inoculation point contained about 10^4 colony-forming particles. The inoculated agar plates were incubated at 37° C., and the growth of microorganism was read off after about 20 hours. The MIC value (μg/ml) indicates the lowest active compound concentration at which no growth was to be detected with the naked eye.

E. coli = conditions: Escherichia coli, 37° C., about 20 hours
Method: as §1

Acinetobacter = conditions: strain 14068, 37° C., about 20 hours
Method: as §1

Enterococcus faecalis = conditions: 20 h, about 20 hours
Method: as §1

Klebsiella pneumoniae = conditions: 37° C., about 20 hours
Method: as §1

Micrococcus luteus = conditions: strain 9341, 37° C., about 20 hours
Method: as §1

Providencia sp. = conditions: 20 h, about 20 hours
Method: as §1

[1] = ATCC29213, 20 h, strain ATCC 29213, 37° C.
[2] = Klebsiella pneumoniae, strain 8085, read-out: MIC

Row | Structure (SMILES) | MIC (Staphylococcus aureus; 20 h, strain 133, 37° C.) [µg/mL] | MIC (Staphylococcus aureus; 20 h, strain ICB 25701, 37° C.) [µg/mL] | MIC (Staphylococcus aureus; 20 h, strain ICB 25768, 37° C.) [µg/mL] | MIC (Staphylococcus aureus; [1]) [µg/mL] | MIC (E. coli; ATCC25922, strain ATCC 25922) [µg/mL] | MIC (E. coli; strain Neumann) [µg/mL] | MIC (Acinetobacter) [µg/mL] | MIC (Enterococcus faecalis; strain 9790, 37° C.) [µg/mL] | MIC (Enterococcus faecalis; strain 27101, 37° C.) [µg/mL] | MIC (Klebsiella pneumoniae; [2]) [µg/mL] | MIC (Klebsiella pneumoniae; strain 63) [µg/mL] | MIC (Micrococcus luteus) [µg/mL] | MIC (Providencia sp.; strain 12012, 37° C.) [µg/mL] | MIC (Providencia sp.; strain 12052, 37° C.) [µg/mL]
1 | CN1COc2c(N3C[C@H]4[C@H](N)CC=C[C@H]4C3)c(F)c(N)c3c(=O)c(C(=O)O)cn1c23 (relative stereo) [Example 11, 8-Amino-10-((1SR,2RS,6RS)-2-amino-8-azabicyclo[4.3.0]non-4-en-8-yl)-9-fluoro-3-methyl-7-oxo-2,3-dihydro-7H-pyrido[1,2,3-d,e][1,3,4]benzoxadiazine-6-carboxylic acid] | ≤ 0.015 | 0.5 (≈ 1.2 µM) | 16 (≈ 38.5 µM) | ≤ 0.015 | ≤ 0.015 | ≤ 0.015 | ≤ 0.015 | ≤ 0.015 | ≤ 0.015 | ≤ 0.015 | ≤ 0.015 | 0.5 (≈ 1.2 µM) | ≤ 0.015 | 16 (≈ 38.5 µM)
2 | CNC1C=CCC2CN(c3c(F)c(N)c4c(=O)c(C(=O)O)cn5c4c3OCN5C)CC21 (centres unmarked) [Example 4, 8-Amino-9-fluoro-3-methyl-10-(2-methylamino-8-azabicyclo[4.3.0]non-3-en-8-yl)-7-oxo-2,3-dihydro-7H-pyrido[1,2,3-d,e][1,3,4]benzoxadiazine-6-carboxylicacid] | ≤ 0.015 | 0.5 (≈ 1.16 µM) | 1 (≈ 2.33 µM) | ≤ 0.015 | 0.03 (≈ 0.0699 µM) | 0.03 (≈ 0.0699 µM) | ≤ 0.015 | 0.06 (≈ 0.14 µM) | 0.06 (≈ 0.14 µM) | 0.06 (≈ 0.14 µM) | 0.06 (≈ 0.14 µM) | ≤ 0.015 | 0.06 (≈ 0.14 µM) | 4 (≈ 9.31 µM)
3 | CN1COc2c(N3CC4CC=CC(N)C4C3)c(F)c(N)c3c(=O)c(C(=O)O)cn1c23 (centres unmarked) [Example 5, 8-Amino-10-(2-amino-8-azabicyclo[4.3.0]non-3-en-8-yl)-9-fluoro-3-methyl-7-oxo-2,3-dihydro-7H-pyrido[1,2,3-d,e][1,3,4]benzoxadiazine-6-carboxylic acid] | ≤ 0.015 | 0.125 (≈ 0.301 µM) | 0.25 (≈ 0.602 µM) | ≤ 0.015 | ≤ 0.015 | ≤ 0.015 | ≤ 0.015 | 0.03 (≈ 0.0722 µM) | 0.03 (≈ 0.0722 µM) | 0.03 (≈ 0.0722 µM) | 0.03 (≈ 0.0722 µM) | ≤ 0.015 | ≤ 0.015 | 2 (≈ 4.81 µM)
4 | CC1C=CC(N)C2CN(c3c(F)c(N)c4c(=O)c(C(=O)O)cn5c4c3OCN5C)CC12 (centres unmarked) [Example 7, 8-Amino-10-(2-amino-5-methyl-8-azabicyclo[4.3.0]non-3-en-8-yl)-9-fluoro-3-methyl-7-oxo-2,3-dihydro-7-H-pyrido[1,2,3-d,e][1,3,4]benzoxadiazine-6-carboxylic acid] | ≤ 0.015 | 0.25 (≈ 0.582 µM) | 0.5 (≈ 1.16 µM) | ≤ 0.015 | ≤ 0.015 | ≤ 0.015 | ≤ 0.015 | 0.03 (≈ 0.0699 µM) | ≤ 0.015 | 0.03 (≈ 0.0699 µM) | 0.03 (≈ 0.0699 µM) | ≤ 0.015 | 0.03 (≈ 0.0699 µM) | 2 (≈ 4.66 µM)
